From patent US10076522B2, “Systems and methods for treating bacterial infection” (priority 2016, dated 2018)
Where a name gives a salt, the structure may show the parent alone.

Legend:
[1] = Acute IV toxicity in rats; conditions: rat, in vivo
[2] = Acute IV toxicity in the mouse; assay type: in vivo
in vivo = conditions: both; for NOAEL at 28 day: marmoset
Procedure: A repeated-dose, 4-week toxicity study was conducted in male and female rats, where single, daily IV bolus doses up to 60 mg/kg were given. […] A 28-day toxicity study was also conducted in male and female marmosets, where iclaprim mesylate was infused intravenously over a 20-minute interval.

[3] = pH of a 1% solution in water; assay type: physicochemical
physchem [4] = experiment: physchem
physchem [5] = conditions: 20 °C, water
[6] = human, in vivo
[7] = in vivo, iv; cited from earlier work
[8] = system: acute bacterial skin and skin structure infections (ABSSSIs) suspected or confirmed to be due to Gram-positive pathogens; experiment: Phase III REVIVE-1 study, efficacy of fixed dose iclaprim versus vancomycin; assay type: in vivo, human; conditions: ITT
Procedure: Subjects were evaluated daily up to ETP, then every 48 to 72 hours through the end of treatment. If the last dose of study drug fell on a day when an evaluation was not planned, an additional evaluation visit was performed on that day (i.e., all EOT evaluations were performed on the last day [+2 days] of drug dose).
The infusion time and duration of treatment for both groups was 2 hours and 5 days (minimum duration) to 14 days (maximum duration), respectively.
The primary endpoint for clinical response (defined as the reduction in lesion size ≥20% compared to baseline) was evaluated in all randomized subjects at ETP (48 to 72 hours post-first dose). […] In addition, clinical outcome was evaluated by the investigator at EOT and TOC (7 to 14 days post EOT). The assessments of clinical outcome was categorized as cure, failure, or indeterminate.
Iclaprim was administered at a dose of 80 mg in 500 mL normal saline, infused over 2 hours q12h (every 12 hours) for 5 to 14 days. For subjects with moderate hepatic impairment (Child-Pugh Class B), iclaprim was administered at a dose of 40 mg in 500 mL normal saline, infused over 2 hours q12h for 5 to 14 days.
Dosing interval was every q12 h, q24 h, q48 h, or dosed by daily level based on creatinine clearance.
The primary efficacy endpoint was the proportion of randomized subjects who achieved an early clinical response (defined as reduction in the lesion size ≥20% compared to baseline) at 48 to 72 hours (ETP) and was evaluated among all randomized subjects (ITT population).
The NI bound were 10%. […] Equivalently, if the lower bound of the two-sided 95% CI for P1-P2 was greater than −0.100 based on the Z test with unpooled variance estimate, NI was concluded.

[9] = Phase III REVIVE-1 study, safety (adverse events); conditions: REVIVE-1 safety population
Procedure: All subjects who received any study drug were evaluated for safety on the basis of medical history and physical examinations, reports of clinical AEs, routine electrocardiography, and clinically significant findings from routine liver function tests, serum chemistry, hematology, coagulation, and urinalysis (UA) tests. All adverse events were recorded throughout the study period, up to and including the LFU phone call. While blinded to treatment assignment, the investigator categorized the severity of each AE and the potential for relationship to study drug. Serious AEs (SAEs) include those that were life threatening, led to prolongation of the existing hospitalization, a congenital anomaly/birth defect, or caused persistent or significant disability, incapacity, or death. Treatment-emergent AEs (TEAEs) were defined as those that start or worsen in severity during or after the first dose of study drug administration through end of study.
Safety evaluation included incidence of TEAEs, laboratory test results (including liver function tests), vital signs, ECG results, and physical examination findings. All summaries of safety data was based on the safety population (all treated subjects).
The AE summary tables included subject (patient) counts. Therefore, if a subject experienced more than one episode of a particular AE, the subject was counted only once for that event. If a subject had more than one AE that was coded to the same preferred term, the subject was counted only once for that preferred term. Similarly, if a subject had more than one AE within a SOC, the subject was counted only once in that SOC.

## COc1cc(Cc2cnc(N)nc2N)c2c(c1OC)OC(C1CC1)C=C2 (racemic) [iclaprim mesylate, 5-[(2RS)-2-cyclopropyl-7,8-dimethoxy-2Hchromen-5-ylmethyl] pyrimidine-2,4-diamine methanesulfonate]
[1]; female rats
  LD50: > 200 mg/kg
[1]; male rats
  LD50: 150 to 200 mg/kg
[2]
  HED of lowest lethal IV dose: 6.1 mg/kg
  lowest lethal IV dose: 75 mg/kg
In vivo
  NOAEL at 28 day: 3.9 mg/kg/day
In vivo; iv
  NOAEL at 28 day: 30 mg/kg/day
In vivo; rat, iv, 4 week
  dosage with histopathological changes at the injection sites: ≥ 10 mg/kg/day
In vivo; rat, iv, HED of NOAEL
  NOAEL at 4 week: 3.9 mg/kg/day
In vivo; rat, iv, NOAEL
  NOAEL at 4 week: > 30 mg/kg/day
[3]
  pH value of a 1% solution in water: 4.2
Physchem [4]
  pKa: 7.2
Physchem [5]
  solubility: ~10000 µg/mL

## CC(=O)NC[C@H]1CN(c2ccc(N3CCOCC3)c(F)c2)C(=O)O1 [linezolid, reference compound]
[6]
  adverse events related to QTc prolongation: 2 cases

## CC[C@H]1OC(=O)[C@H](C)[C@@H](O[C@H]2C[C@@](C)(OC)[C@@H](O)[C@H](C)O2)[C@H](C)[C@@H](O[C@@H]2O[C@H](C)C[C@H](N(C)C)[C@H]2O)[C@](C)(OC)C[C@@H](C)C(=O)[C@H](C)[C@@H](O)[C@]1(C)O [clarithromycin]
[7]
  QTc prolongation: 3 to 11 ms

## CN[C@H](CC(C)C)C(=O)N[C@H]1C(=O)N[C@@H](CC(N)=O)C(=O)N[C@H]2C(=O)N[C@H]3C(=O)N[C@H](C(=O)N[C@H](C(=O)O)c4cc(O)cc(O)c4-c4cc3ccc4O)[C@H](O)c3ccc(c(Cl)c3)Oc3cc2cc(c3O[C@@H]2O[C@H](CO)[C@@H](O)[C@H](O)[C@H]2O[C@H]2C[C@](C)(N)[C@H](O)[C@H](C)O2)Oc2ccc(cc2Cl)[C@H]1O [Vancomycin, vancomycin, reference compound]
[8]; ETP (48 to 72 hours)
  Early Clinical Response (ECR), percent of subjects: 81.0%
[8]; TOC (7 to 14 days after study drug discontinuation)
  Clinical cure, number of subjects: 261
[8]; TOC
  Clinical cure, percent of subjects: 87.0%
[9]
  Deaths, number of subjects: 1
  Deaths, percent of subjects: 0.3%
  Study drug related TEAEs, number of subjects: 53
  Study drug related TEAEs, percent of subjects: 17.8%
  TEAE-related SAEs (Serious AEs), number of subjects: 12
  TEAE-related SAEs (Serious AEs), percent of subjects: 4.0%
  TEAEs (Treatment Emergent Adverse Events), number of subjects: 128
  TEAEs (Treatment Emergent Adverse Events), percent of subjects: 43.1%
  TEAEs leading to discontinuation of study drug, number of subjects: 13
  TEAEs leading to discontinuation of study drug, percent of subjects: 4.4%
